Measured values taken from publication PMC7838034 (Acta Pharmaceutica Sinica. B, 2020).

Experiments:
MDA-MB-468 cells = assay: Cell viability assay; format: cell-based, human; settings: Homo sapiens, MDA-MB-468, 24 h, read-out: Anti-proliferative activity (IC50)
PARP1 = PARP1 (Homo sapiens, UniProt P09874); assay: PARP1 inhibition assay; format: biochemical; settings: tested in duplicate, average; for inhibition at 1 µM: read-out: Inhibition rate PARP1, 1 μmol/L; for inhibition at 10 µM: read-out: Inhibition rate PARP1, 10 μmol/L
[1] = molecular target: recombinant BRD4(BD1 + BD2) (Homo sapiens, UniProt O60885); assay: BRD4 inhibition assay; format: binding; settings: tested in duplicate, average; for inhibition at 1 µM: read-out: Inhibition rate BRD4, 1 μmol/L; for inhibition at 10 µM: read-out: Inhibition rate BRD4, 10 μmol/L

PARP1, sequence (P09874 whole entry): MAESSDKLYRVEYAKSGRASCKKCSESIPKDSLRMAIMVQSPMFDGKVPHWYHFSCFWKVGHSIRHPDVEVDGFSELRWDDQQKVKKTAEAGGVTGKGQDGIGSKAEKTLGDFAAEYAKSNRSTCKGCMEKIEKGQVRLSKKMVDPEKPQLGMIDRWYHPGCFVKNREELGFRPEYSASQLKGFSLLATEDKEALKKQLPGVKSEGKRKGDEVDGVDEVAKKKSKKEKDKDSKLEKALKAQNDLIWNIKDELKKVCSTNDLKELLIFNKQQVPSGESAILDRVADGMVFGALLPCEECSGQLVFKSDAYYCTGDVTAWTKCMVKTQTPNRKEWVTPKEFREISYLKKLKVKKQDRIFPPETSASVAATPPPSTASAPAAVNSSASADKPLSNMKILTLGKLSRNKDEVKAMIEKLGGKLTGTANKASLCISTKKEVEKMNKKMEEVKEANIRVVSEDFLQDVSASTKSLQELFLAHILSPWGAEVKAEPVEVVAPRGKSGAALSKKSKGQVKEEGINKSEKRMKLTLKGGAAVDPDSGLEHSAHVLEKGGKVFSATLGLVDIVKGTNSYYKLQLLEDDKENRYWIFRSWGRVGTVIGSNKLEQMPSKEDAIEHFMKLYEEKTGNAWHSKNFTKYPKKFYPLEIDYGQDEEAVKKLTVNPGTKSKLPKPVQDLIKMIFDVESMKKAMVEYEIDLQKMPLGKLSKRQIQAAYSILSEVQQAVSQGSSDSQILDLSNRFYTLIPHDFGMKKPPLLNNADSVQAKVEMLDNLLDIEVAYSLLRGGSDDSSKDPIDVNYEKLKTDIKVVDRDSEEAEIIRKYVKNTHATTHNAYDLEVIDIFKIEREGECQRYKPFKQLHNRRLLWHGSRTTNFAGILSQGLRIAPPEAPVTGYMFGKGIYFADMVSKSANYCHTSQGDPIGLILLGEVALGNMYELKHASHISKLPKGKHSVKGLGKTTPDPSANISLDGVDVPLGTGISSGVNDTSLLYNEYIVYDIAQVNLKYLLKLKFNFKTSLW

IC50 (MDA-MB-468 cells)	inhibition at 1 µM (PARP1)	inhibition at 10 µM (PARP1)	inhibition at 1 µM [1]	inhibition at 10 µM [1]	Inhibition rate PARP1 (PARP1; 1 μmol/L)	Inhibition rate PARP1 (PARP1; 10 μmol/L)	Inhibition rate BRD4 ([1]; 1 μmol/L)	Inhibition rate BRD4 ([1]; 10 μmol/L)	Molecule
> 30 µM	7%	11%	15%	46%					COc1cc(OC)c2c(=O)[nH]c(-c3cc(C)c(OCCOc4ccc5cn[nH]c5c4)c(C)c3)nc2c1 [Compound 19m, 2-(4-(2-((1H-Indazol-6-yl)oxy)ethoxy)-3,5-dimethylphenyl)-5,7-dimethoxyquinazolin-4(3H)-one]
> 30 µM	6%	18%	12%	64%					COc1cc(OC)c2c(=O)[nH]c(-c3cc(OC)c(OCCOn4nnc5ccccc54)c(OC)c3)nc2c1 [Compound 19j, 2-(4-(2-((1H-Benzo[d][1,2,3]triazol-1-yl)oxy)ethoxy)-3,5-dimethoxyphenyl)-5,7-dimethoxyquinazolin-4(3H)-one]
6 ± 0.9 µM	30%	85%	31%	90%					COc1cc(OC)c2c(=O)[nH]c(-c3cc(Cl)ccc3OCCOc3ccccc3C(N)=O)nc2c1 [Compound 19a, 2-(2-(4-Chloro-2-(5,7-dimethoxy-4-oxo-3,4-dihydroquinazolin-2-yl)phenoxy)ethoxy)benzamide]
> 30 µM	3%	13%	3%	56%					COc1cc(OC)c2c(=O)[nH]c(-c3ccc(OCCOc4ccc5cn[nH]c5c4)cc3)nc2c1 [Compound 19o, 2-(4-(2-((1H-Indazol-6-yl)oxy)ethoxy)phenyl)-5,7-dimethoxyquinazolin-4(3H)-one]
5.7 ± 2.1 µM	25%	70%	15%	72%					COc1cc(OC)c2c(=O)[nH]c(-c3cc(OC)c(OCCOc4ccccc4C(N)=O)c(OC)c3)nc2c1 [Compound 19g, 2-(2-(4-(5,7-Dimethoxy-4-oxo-3,4-dihydroquinazolin-2-yl)-2,6-dimethoxyphenoxy)ethoxy)benzamide]
	19%	51%	29%	60%					COc1cc(OC)c2c(=O)[nH]c(-c3ccc(OCOc4ccccc4C(N)=O)cc3)nc2c1 [Compound 19v, 2-((4-(5,7-Dimethoxy-4-oxo-3,4-dihydroquinazolin-2-yl)phenoxy)methoxy)benzamide]
	11%	55%	5%	30%					COc1cc(OC)c2c(=O)[nH]c(-c3ccc(C(=O)N4CCn5c(nnc5C(F)(F)F)C4)cc3F)nc2c1 [Compound 15c, 2-(2-Fluoro-4-(3-(trifluoromethyl)-5,6,7,8-tetrahydro-[1,2,4]triazolo[4,3-a]pyrazine-7-carbonyl)phenyl)-5,7-dimethoxyquinazolin-4(3H)-one]
					18%	71%	4%	41%	2-(4-((4-(Cyclopropanecarbonyl)piperazin-1-yl)methyl)phenyl)quinazolin-4(3H)-one [Compound 11d]
	7%		9%						COc1cccc2nc(-c3ccc(C(=O)N4CCN(C(=O)C5CC5)CC4)cc3F)[nH]c(=O)c12 [Compound 15e, 2-(4-(4-(Cyclopropanecarbonyl)piperazine-1-carbonyl)-2-fluorophenyl)-5-methoxyquinazolin-4(3H)-one]
	14%	72%	7%	68%					COc1cc(OC)c2c(=O)[nH]c(-c3ccc(C(=O)N4CCN(C(=O)C5CC5)CC4)cc3F)nc2c1 [Compound 15a, 2-(4-(4-(Cyclopropanecarbonyl)piperazine-1-carbonyl)-2-fluorophenyl)-5,7-dimethoxyquinazolin-4(3H)-one]
					8%	60%	9%	47%	2-(4-((4-(Cyclopropanecarbonyl)piperazin-1-yl)methyl)phenyl)-5,7-dimethoxyquinazolin-4(3H)-one [Compound 11c]
	6%	57%	4%	50%					COc1cc(OC)c2c(=O)[nH]c(-c3cccc(C(=O)N4CCN(C(=O)C5CC5)CC4)c3)nc2c1 [Compound 11a, 2-(3-(4-(Cyclopropanecarbonyl)piperazine-1-carbonyl)phenyl)-5,7-dimethoxyquinazolin-4(3H)-one]
	6%	≤ 87%	4%	53%					O=C(c1ccc(-c2nc3ccccc3c(=O)[nH]2)c(F)c1)N1CCN(C(=O)C2CC2)CC1 [Compound 15b, 2-(4-(4-(Cyclopropanecarbonyl)piperazine-1-carbonyl)-2-fluorophenyl)quinazolin-4(3H)-one]
		60%	3%	18%					O=C(c1ccc(-c2nc3ccccc3c(=O)[nH]2)c(F)c1)N1CCn2c(nnc2C(F)(F)F)C1 [Compound 15d, 2-(2-Fluoro-4-(3-(trifluoromethyl)-5,6,7,8-tetrahydro-[1,2,4]triazolo[4,3-a]pyrazine-7-carbonyl)phenyl)quinazolin-4(3H)-one]
	16%	70%	12%	43%					O=C(c1cccc(-c2nc3ccccc3c(=O)[nH]2)c1)N1CCN(C(=O)C2CC2)CC1 [Compound 11b, 2-(3-(4-(Cyclopropanecarbonyl)piperazine-1-carbonyl)phenyl)quinazolin-4(3H)-one]
	4%	46%	8%	30%					COc1cccc2nc(-c3cccc(C(=O)N4CCN(C(=O)C5CC5)CC4)c3)[nH]c(=O)c12 [Compound 11e, 2-(3-(4-(Cyclopropanecarbonyl)piperazine-1-carbonyl)phenyl)-5-methoxyquinazolin-4(3H)-one]

More lines, now with the values behind:

Molecule	IC50 (MDA-MB-468 cells)	inhibition at 1 µM (PARP1)	inhibition at 10 µM (PARP1)	inhibition at 1 µM [1]	inhibition at 10 µM [1]	Inhibition rate PARP1 (PARP1; 1 μmol/L)	Inhibition rate PARP1 (PARP1; 10 μmol/L)	Inhibition rate BRD4 ([1]; 1 μmol/L)	Inhibition rate BRD4 ([1]; 10 μmol/L)
COc1cc(OC)c2c(=O)[nH]c(-c3cc(Cl)ccc3OCCCCOc3ccccc3C(N)=O)nc2c1 [Compound 19c, 2-(4-(4-Chloro-2-(5,7-dimethoxy-4-oxo-3,4-dihydroquinazolin-2-yl)phenoxy)butoxy)benzamide]	7.4 ± 1.8 µM	29%	84%	7%	54%				
COc1cc(OC)c2c(=O)[nH]c(-c3ccc(C(N)=O)cc3)nc2c1 [Compound 5c, 4-(5,7-Dimethoxy-4-oxo-3,4-dihydroquinazolin-2-yl)benzamide]		0%	2%	1%	18%				
NC(=O)c1ccc(-c2nc3ccccc3c(=O)[nH]2)cc1 [Compound 5d, 4-(4-Oxo-3,4-dihydroquinazolin-2-yl)benzamide]		0%	1%	2%	19%				
O=c1[nH]c(-c2ccc(N3CCOCC3)cc2)nc2ccccc12 [Compound 5f, 2-(4-Morpholinophenyl)quinazolin-4(3H)-one]		0%	29%	12%	55%				
COc1cc(OC)c2c(=O)[nH]c(-c3ccc(N4CCOCC4)cc3)nc2c1 [Compound 5e, 5,7-Dimethoxy-2-(4-morpholinophenyl)quinazolin-4(3H)-one]		2%	36%	12%	70%				
COc1cc(OC)c2c(=O)[nH]c(-c3cccc4nc[nH]c34)nc2c1 [Compound 5k, 2-(1H-Benzo[d]imidazole-7-yl)-5,7-dimethoxyquinazolin-4(3H)-one]		6%	39%	8%	42%				
CNC(=O)c1ccc(-c2nc3cc(OC)cc(OC)c3c(=O)[nH]2)cc1 [Compound 5a, 4-(5,7-Dimethoxy-4-oxo-3,4-dihydroquinazolin-2-yl)-N-methylbenzamide]		4%	25%	1%	36%				
O=c1[nH]c(-c2cccc3nc[nH]c23)nc2ccccc12 [Compound 5h, 2-(1H-Benzo[d]imidazole-7-yl)quinazolin-4(3H)-one]		3%	10%	0%	11%				
COc1cc(OC)c2c(=O)[nH]c(-c3c[nH]c4ncccc34)nc2c1 [Compound 5i, 5,7-Dimethoxy-2-(1H-pyrrolo[2,3-b]pyridin-3-yl)quinazolin-4(3H)-one]		8%							
COc1cc(OC)c2c(=O)[nH]c(-c3ccc4cc[nH]c4c3)nc2c1 [Compound 5g, 2-(1H-Indol-6-yl)-5,7-dimethoxyquinazolin-4(3H)-one]		9%	34%	3%	13%				
O=C(c1cc(Cc2n[nH]c(=O)c3ccccc23)ccc1F)N1CCN(C(=O)C2CC2)CC1 [Olaparib, reference compound]	1.1 ± 1.4 µM								
O=c1[nH]c(-c2c[nH]c3ncccc23)nc2ccccc12 [Compound 5j, 2-(1H-Pyrrolo[2,3-b]pyridin-3-yl)quinazolin-4(3H)-one]				6%					
CNC(=O)c1ccc(-c2nc3ccccc3c(=O)[nH]2)cc1 [Compound 5b, N-Methyl-4-(4-oxo-3,4-dihydroquinazolin-2-yl)benzamide]		0%	15%	0%	22%				
